Drawing on US8633200B2, “Inhibitors of human immunodeficiency virus replication” (priority 2010, dated 2014), this text covers EC50 for 26 compounds.

Where a name gives a salt, the structure may show the parent alone. Bounds are passed on as bounds.

For the first assay, the system named is recombinant NL-Rluc virus (NL4-3 with Renilla Luciferase gene) in MT-2 cells. Briefly: Inhibition of HIV replication (NL-Rluc luciferase reporter virus, MT-2 cells). Particulars: NL43, 120 h, read-out: Activity. It counts as cell-based, human immunodeficiency virus (HIV).
`Cc1cccc(-c2cc3nc(C)c(C(OC(C)(C)C)C(=O)O)c(-c4ccc5c(c4)CCCO5)n3n2)c1` (stereo not drawn) [Example 114, 2-tert-Butoxy-2-(7-(chroman-6-yl)-5-methyl-2-m-tolylpyrazolo[1,5-a]pyrimidin-6-yl)acetic acid, TFA salt]: the EC50 lay in the range of 0.1 to 1 µM.
Take `Cc1ccccc1-c1cccc(-c2cc3nc(C)c([C@H](OC(C)(C)C)C(=O)O)c(-c4cc(F)c5c(c4C)CCCO5)n3n2)c1` [Example 115, (2S)-2-(tert-Butoxy)-2-(7-(8-fluoro-5-methylchroman-6-yl)-5-methyl-2-(2′-methyl-[1,1′-biphenyl]-3-yl)pyrazolo[1,5-a]pyrimidin-6-yl)acetic acid]: the EC50 was less than 0.1 µM.
Same read-out and setting: as for `COc1ccccc1-c1cccc(-c2cc3nc(C)c([C@H](OC(C)(C)C)C(=O)O)c(-c4cc(F)c5c(c4C)CCCO5)n3n2)c1` [Example 116, (2S)-2-(tert-Butoxy)-2-(7-(8-fluoro-5-methylchroman-6-yl)-2-(2′-methoxy-[1,1′-biphenyl]-3-yl)-5-methylpyrazolo[1,5-a]pyrimidin-6-yl)acetic acid], the figure is less than 0.1 µM.
Same read-out and setting: in the case of `COc1ccncc1-c1cccc(-c2cc3nc(C)c([C@H](OC(C)(C)C)C(=O)O)c(-c4cc(F)c5c(c4C)CCCO5)n3n2)c1` [Example 117, (2S)-2-(tert-Butoxy)-2-(7-(8-fluoro-5-methylchroman-6-yl)-2-(3-(4-methoxypyridin-3-yl)phenyl)-5-methylpyrazolo[1,5-a]pyrimidin-6-yl)acetic acid] it was less than 0.1 µM.
The same measure, in the same setting: as for `Cc1nc2cc(-c3cccc(-c4ccccc4F)c3)nn2c(-c2cc(F)c3c(c2C)CCCO3)c1[C@H](OC(C)(C)C)C(=O)O` [Example 118, (2S)-2-(tert-Butoxy)-2-(7-(8-fluoro-5-methylchroman-6-yl)-2-(2′-fluoro-[1,1′-biphenyl]-3-yl)-5-methylpyrazolo[1,5-a]pyrimidin-6-yl)acetic acid], the figure is less than 0.1 µM; as for `Cc1nc2cc(-c3cccc(-c4cccnc4)c3)nn2c(-c2cc(F)c3c(c2C)CCCO3)c1[C@H](OC(C)(C)C)C(=O)O` [Example 119, (2S)-2-(tert-Butoxy)-2-(7-(8-fluoro-5-methylchroman-6-yl)-5-methyl-2-(3-(pyridin-3-yl)phenyl)pyrazolo[1,5-a]pyrimidin-6-yl)acetic acid], less than 0.1 µM; as for `Cc1nc2cc(-c3cccc(-c4ccc5c(cnn5C)c4)c3)nn2c(-c2cc(F)c3c(c2C)CCCO3)c1[C@H](OC(C)(C)C)C(=O)O` [Example 120, (2S)-2-(tert-Butoxy)-2-(7-(8-fluoro-5-methylchroman-6-yl)-5-methyl-2-(3-(1-methyl-1H-indazol-5-yl)phenyl)pyrazolo[1,5-a]pyrimidin-6-yl)acetic acid], less than 0.1 µM.
For `Cc1nc2cc(-c3cccc(-c4ccncc4)c3)nn2c(-c2cc(F)c3c(c2C)CCCO3)c1[C@H](OC(C)(C)C)C(=O)O` [Example 121, (2S)-2-(tert-Butoxy)-2-(7-(8-fluoro-5-methylchroman-6-yl)-5-methyl-2-(3-(pyridin-4-yl)phenyl)pyrazolo[1,5-a]pyrimidin-6-yl)acetic acid, TFA salt], the EC50 is less than 0.1 µM.
Still for that read-out and setting: in the case of `Cc1nc2cc(-c3cccc(-c4ccncc4)c3)nn2c(-c2cc(F)c3c(c2C)CCCO3)c1[C@@H](OC(C)(C)C)C(=O)O` [Example 122, (2R)-2-(tert-Butoxy)-2-(7-(8-fluoro-5-methylchroman-6-yl)-5-methyl-2-(3-(pyridin-4-yl)phenyl)pyrazolo[1,5-a]pyrimidin-6-yl)acetic acid, TFA salt] it was more than 1 µM; in that of `Cc1nc2cc(-c3cccc(Cl)c3)nn2c(-c2cc(F)c3c(c2C)CCCO3)c1[C@H](OC(C)(C)C)C(=O)O` [Example 123, (2S)-2-(tert-Butoxy)-2-(2-(3-chlorophenyl)-7-(8-fluoro-5-methylchroman-6-yl)-5-methylpyrazolo[1,5-a]pyrimidin-6-yl)acetic acid, TFA salt], less than 0.1 µM.
The same measure, in the same setting: in the case of `Cc1nc2cc(-c3cccc(-c4ccc(F)cc4)c3)nn2c(-c2cc(F)c3c(c2C)CCCO3)c1[C@H](OC(C)(C)C)C(=O)O` [Example 124, (2S)-2-(tert-Butoxy)-2-(7-(8-fluoro-5-methylchroman-6-yl)-2-(4′-fluoro-[1,1′-biphenyl]-3-yl)-5-methylpyrazolo[1,5-a]pyrimidin-6-yl)acetic acid, TFA salt] it was less than 0.1 µM; in that of `Cc1nc2cc(-c3cccc(-c4ccccc4)c3)nn2c(-c2cc(F)c3c(c2C)CCCO3)c1[C@H](OC(C)(C)C)C(=O)O` [Example 125, (2S)-2-(2-([1,1′-Biphenyl]-3-yl)-7-(8-fluoro-5-methylchroman-6-yl)-5-methylpyrazolo[1,5-a]pyrimidin-6-yl)-2-(tert-butoxy)acetic acid], less than 0.1 µM; in that of `Cc1ccc(-c2cccc(-c3cc4nc(C)c([C@H](OC(C)(C)C)C(=O)O)c(-c5cc(F)c6c(c5C)CCCO6)n4n3)c2)cc1` [Example 126, (2S)-2-(tert-Butoxy)-2-(7-(8-fluoro-5-methylchroman-6-yl)-2-(4′-methyl-[1,1′-biphenyl]-3-yl)-5-methylpyrazolo[1,5-a]pyrimidin-6-yl)acetic acid, TFA salt], less than 0.1 µM.
On the same count and under the same terms, in the case of `COc1ccc(-c2cccc(-c3cc4nc(C)c([C@H](OC(C)(C)C)C(=O)O)c(-c5cc(F)c6c(c5C)CCCO6)n4n3)c2)cc1` [Example 127, (2S)-2-(tert-Butoxy)-2-(7-(8-fluoro-5-methylchroman-6-yl)-2-(4′-methoxy-[1,1′-biphenyl]-3-yl)-5-methylpyrazolo[1,5-a]pyrimidin-6-yl)acetic acid, TFA salt] it was less than 0.1 µM.
In the case of `Cc1nc2cc(-c3cccc(-c4cccc(F)c4)c3)nn2c(-c2cc(F)c3c(c2C)CCCO3)c1[C@H](OC(C)(C)C)C(=O)O` [Example 128, (2S)-2-(tert-Butoxy)-2-(7-(8-fluoro-5-methylchroman-6-yl)-2-(3′-fluoro-[1,1′-biphenyl]-3-yl)-5-methylpyrazolo[1,5-a]pyrimidin-6-yl)acetic acid, TFA salt], the EC50 is less than 0.1 µM.
On the same count and under the same terms, as for `COc1cccc(-c2cccc(-c3cc4nc(C)c([C@H](OC(C)(C)C)C(=O)O)c(-c5cc(F)c6c(c5C)CCCO6)n4n3)c2)c1` [Example 129, (2S)-2-(tert-Butoxy)-2-(7-(8-fluoro-5-methylchroman-6-yl)-2-(3′-methoxy-[1,1′-biphenyl]-3-yl)-5-methylpyrazolo[1,5-a]pyrimidin-6-yl)acetic acid, TFA salt], the figure is less than 0.1 µM.
The same measure, in the same setting: as for `Cc1cccc(-c2cccc(-c3cc4nc(C)c([C@H](OC(C)(C)C)C(=O)O)c(-c5cc(F)c6c(c5C)CCCO6)n4n3)c2)c1` [Example 130, (2S)-2-(tert-Butoxy)-2-(7-(8-fluoro-5-methylchroman-6-yl)-2-(3′-methyl-[1,1′-biphenyl]-3-yl)-5-methylpyrazolo[1,5-a]pyrimidin-6-yl)acetic acid, TFA salt], the figure is less than 0.1 µM.
In the case of `Cc1nc2cc(-c3cccc(-c4cnn(C)c4)c3)nn2c(-c2cc(F)c3c(c2C)CCCO3)c1[C@H](OC(C)(C)C)C(=O)O` [Example 131, (2S)-2-(tert-Butoxy)-2-(7-(8-fluoro-5-methylchroman-6-yl)-5-methyl-2-(3-(1-methyl-1H-pyrazol-4-yl)phenyl)pyrazolo[1,5-a]pyrimidin-6-yl)acetic acid], the EC50 is less than 0.1 µM.
The same measure, in the same setting: as for `Cc1nc2c(-c3cccc(Cl)c3)cnn2c(-c2cc(F)c3c(c2C)CCCO3)c1C(OC(C)(C)C)C(=O)O` (stereo not drawn) [Example 132], the figure is 0.1 to 1 µM; as for `Cc1nc2c(-c3cccc(Cl)c3)cnn2c(-c2ccc3c(c2)CCCO3)c1C(OC(C)(C)C)C(=O)O` (stereo not drawn) [Example 133, 2-tert-Butoxy-2-(3-(3-chlorophenyl)-(7-chroman-6-yl)-5-methylpyrazolo[1,5-a]pyrimidin-6-yl)acetic acid], 0.1 to 1 µM; as for `Cc1ccc(-c2c(C(OC(C)(C)C)C(=O)O)c(C)nc3c(-c4cccc(Cl)c4)cnn23)c(Cl)c1` (stereo not drawn) [Example 134, 2-tert-Butoxy-2-(7-(2-chloro-4-methylphenyl)-3-(3-chlorophenyl)-5-methylpyrazolo[1,5-a]pyrimidin-6-yl)acetic acid], more than 1 µM.
For the compound `Cc1nc2c(-c3cccc(-c4ccncc4)c3)cnn2c(-c2cc(F)c3c(c2C)CCCO3)c1C(OC(C)(C)C)C(=O)O` (stereo not drawn) [Example 135, 2-(tert-Butoxy)-2-(7-(8-fluoro-5-methylchroman-6-yl)-5-methyl-3-(3-(pyridin-4-yl)phenyl)pyrazolo[1,5-a]pyrimidin-6-yl)acetic acid], the EC50 is 0.1 to 1 µM.
Same read-out and setting: in the case of `Cc1nc2c(-c3ccc(F)cc3)c(-c3ccccc3)nn2c(-c2cc(F)c3c(c2C)CCCO3)c1C(OC(C)(C)C)C(=O)O` (stereo not drawn) [Example 136, 2-(tert-Butoxy)-2-(7-(8-fluoro-5-methylchroman-6-yl)-3-(4-fluorophenyl)-5-methyl-2-phenylpyrazolo[1,5-a]pyrimidin-6-yl)acetic acid] it was more than 1 µM; in that of `Cc1nc2c(-c3cc(F)c4c(c3C)CCCO4)c(-c3ccccc3)nn2c(-c2cc(F)c3c(c2C)CCCO3)c1C(OC(C)(C)C)C(=O)O` (stereo not drawn) [Example 137, 2-(3,7-Bis(8-fluoro-5-methylchroman-6-yl)-5-methyl-2-phenylpyrazolo[1,5-a]pyrimidin-6-yl)-2-(tert-butoxy)acetic acid], more than 1 µM; in that of `Cc1nc2c(Br)c(-c3ccccc3)nn2c(-c2cc(F)c3c(c2C)CCCO3)c1[C@H](OC(C)(C)C)C(=O)O` [Example 138, (2S)-2-(3-Bromo-7-(8-fluoro-5-methylchroman-6-yl)-5-methyl-2-phenylpyrazolo[1,5-a]pyrimidin-6-yl)-2-(tert-butoxy)acetic acid], 0.1 to 1 µM.
The same measure, in the same setting: in the case of `Cc1nc2c(-c3cccc(Cl)c3)c(-c3ccccc3)nn2c(-c2cc(F)c3c(c2C)CCCO3)c1[C@H](OC(C)(C)C)C(=O)O` [Example 140, (2S)-2-(tert-Butoxy)-2-(3-(3-chlorophenyl)-7-(8-fluoro-5-methylchroman-6-yl)-5-methyl-2-phenylpyrazolo[1,5-a]pyrimidin-6-yl)acetic acid] it was 0.1 to 1 µM.

The same assay, now with this note: NL43, 120 h, read-out: EC50 μM.
For `Cc1ccccc1-c1cccc(-c2cc3nc(C)c([C@H](OC(C)(C)C)C(=O)O)c(-c4cc(F)c5c(c4C)CCCO5)n3n2)c1` [Example 115, (2S)-2-(tert-Butoxy)-2-(7-(8-fluoro-5-methylchroman-6-yl)-5-methyl-2-(2′-methyl-[1,1′-biphenyl]-3-yl)pyrazolo[1,5-a]pyrimidin-6-yl)acetic acid], the EC50 was 0.02 µM.
Consider `Cc1nc2cc(-c3cccc(-c4ccc5c(cnn5C)c4)c3)nn2c(-c2cc(F)c3c(c2C)CCCO3)c1[C@H](OC(C)(C)C)C(=O)O` [Example 120, (2S)-2-(tert-Butoxy)-2-(7-(8-fluoro-5-methylchroman-6-yl)-5-methyl-2-(3-(1-methyl-1H-indazol-5-yl)phenyl)pyrazolo[1,5-a]pyrimidin-6-yl)acetic acid], for which the EC50 was 0.002 µM.
For `Cc1nc2c(-c3ccc(F)cc3)c(-c3ccccc3)nn2c(-c2cc(F)c3c(c2C)CCCO3)c1C(OC(C)(C)C)C(=O)O` (stereo not drawn) [Example 136, 2-(tert-Butoxy)-2-(7-(8-fluoro-5-methylchroman-6-yl)-3-(4-fluorophenyl)-5-methyl-2-phenylpyrazolo[1,5-a]pyrimidin-6-yl)acetic acid], the EC50 was 1.6 µM.
On to `Cc1nc2c(-c3cccc(Cl)c3)c(-c3ccccc3)nn2c(-c2cc(F)c3c(c2C)CCCO3)c1[C@H](OC(C)(C)C)C(=O)O` [Example 140, (2S)-2-(tert-Butoxy)-2-(3-(3-chlorophenyl)-7-(8-fluoro-5-methylchroman-6-yl)-5-methyl-2-phenylpyrazolo[1,5-a]pyrimidin-6-yl)acetic acid], for which the EC50 was 1 µM.
